The record followed here is US20090233910A1, “Npy antagonists, preparation and uses” (CEREP, priority 2005, published 2009).

Marks after values point to notes of the source that are not given here.

Experiment [1] has as its system fasting mice. As to the kind of experiment: Food intake by fasting mice. Conditions: fasting male OF1 mice, 30 mg/kg ip. In kind it is in vivo. As for the experimental part: The day before the experiment at 16 h, male OF1 mice (Charles River, France) with body weight varying between 20 and 25 g, are left to fast in individual cages with unlimited drink water. On the day of the experiment, at 9 h30±15 min, a control batch of 10 mice was given the solvent (5% DMSO, Merck, 1.02931.1000, 5% cremophor EL, Sigma C-5135, physiological saline solution to complete to volume) via intra peritoneal route or per os in a volume of 10 ml/kg, and the other batches of 10 mice were given the products to be tested dissolved in the solvent (10 or 30 mg/kg in a volume of 10 ml/kg ip ou po). Individual feed troughs filled with food (A04, UAR, France) were weighed then placed in the cages, exactly 30 min or 60.min after treating the mice ip or per os, respectively. The feed troughs were then weighed 1 h, 2 h, 3 h, 4 h and when applicable 6 h and 24 h after placing the feed troughs in the cages. Food consumptions are expressed in grams, as a mean±standard error (S.E.M). (n=10). Statistical analysis used ANOVA followed by Dunnett's multiple comparison test. The level of significance is obtained for p<0.05.

Experiment [2] deals with T1, NPY Y1 receptor (Homo sapiens, UniProt P25929).
T1 construct: host or cells: SK-N-MC cells (whole-cell suspension)
T1 sequence (P25929 1-384): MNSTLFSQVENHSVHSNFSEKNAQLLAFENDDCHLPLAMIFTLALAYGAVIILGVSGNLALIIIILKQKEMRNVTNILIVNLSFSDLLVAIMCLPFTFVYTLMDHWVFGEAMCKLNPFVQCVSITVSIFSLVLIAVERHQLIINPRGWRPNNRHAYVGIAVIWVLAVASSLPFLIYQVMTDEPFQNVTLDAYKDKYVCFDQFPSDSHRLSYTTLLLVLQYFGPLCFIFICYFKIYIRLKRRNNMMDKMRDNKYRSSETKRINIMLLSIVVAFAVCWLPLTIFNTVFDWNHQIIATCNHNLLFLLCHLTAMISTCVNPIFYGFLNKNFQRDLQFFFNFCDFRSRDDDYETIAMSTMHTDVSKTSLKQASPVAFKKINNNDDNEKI
As to the kind of experiment: Binding test to the NPY Y1 receptor ([125I]-PYY, SK-N-MC cell suspension). Conditions: SK-N-MC cells, 25 pM [125I]-PYY. As for the experimental part:
The SK-N-MC cells (ATCC HBT10) are cultured at 37° C. in MEM medium (minimum essential medium) free of phenol red (Invitrogen ref. 04194565M) containing 10% foetal calf serum (Invitrogen ref. 10270-106), 1% non-essential aminoacids (Invitrogen ref. 11140-035), 1% sodium pyruvate (Invitrogen ref. 11360-039), 1% glutamine (Invitrogen ref. 25030-032), 100 IU/ml of penicillin and 100 μg/ml of streptomycin (Invitrogen ref. 15140-122) in a humid atmosphere containing 5% CO2.
After aspirating the culture medium, the cells are washed with a phosphate buffer pH 7.4 (Invitrogen ref. 14190-094), then lifted with a Versene solution (Invitrogen, ref 15040-033). The cells are centrifuged at 500×g for 10 minutes at 4° C. then resuspended in a freeze buffer pH 7.4 containing 50 mM HEPES (N-2-hydroxyethylpiperazine-N′-2-ethanesulfonic acid), 145 mM sodium chloride, 2.6 mM calcium chloride, 1 mM magnesium chloride, 10 mM glucose, and 1 mg/ml bovine albumin. The cell suspension is aliquoted into twenty million cells per milliliter of buffer and stored at −70° C.
The cell suspension is incubated 2 hours at 37° C. in an incubation buffer pH 7.4 containing 50 mM HEPES, 2.5 mM calcium chloride, 1 mM magnesium chloride, 0.025% sodium azide, 1 mg/ml bovine albumin and 25 pM [^125I]-PYY (Perkin Elmer, NEX341). The reaction is halted by filtering through a GF/B filter pre-treated with 0.3% PEI, and washed three times with 1 ml of 50 mM TRIS buffer [tris(hydroxymethyl)aminomethane]/HCl, pH 7.4. The radioactivity deposited on the filter is measured by liquid scintillation count (TopCount, Packard). Non-specific binding is determined in the presence of 1 μM NPY (Bachem, H3322). Results are expressed as IC50 values in nM calculated by non-linear regression with 4 parameters.

Experiment [3] has as its target T1, NPY Y1 receptor. The experiment in a line: cAMP measurement test in SK-N-MC cells (shift of NPY dose-effect curves, forskoline-stimulated). Format: cell-based. Conditions: Schild analysis vs NPY, read-out: pA2 Y1 (converted). Here is the method:
The SK-N-MC cells are cultured in 96-well plates. After aspirating the culture medium, the cells are washed with a phosphate buffer pH 7.4 (Invitrogen ref. 14190-094), then lifted with a Versene solution (Invitrogen, ref 15040-033). The cells are centrifuged at 500×g for 10 minutes at 4° C. They are resuspended in a stimulation buffer containing isobutyl-methyl-xanthine in sufficient concentration to inhibit the phosphodiesterases (Flashplate kit, Perkin Elmer). The tested compounds are added 10 minutes before depositing the NPY (Bachem, H3322) in variable concentration, then the 300 nM forskoline (Sigma, F6886). The cells are in cubated 1 hour at ambient temperature to allow cAMP production whose levels are measured using the Flashplate method after 2 hours incubation with the cAMP tracer [^125I]. The results are expressed in pA2 form observing the displacement of NPY dose-effect curves in the absence and presence of increasing concentrations of test compound [Schild, 1949, pAx and competitive drug antagonism, Br. J. Pharmacol., 4, 277-280].

`CCCCN1CCC(Oc2ccc(C(=O)Nc3ccc(Oc4cc(F)c(NC(=O)NC(CC)CC)cc4OC)cc3)cc2C)CC1` [Example 312, 4-(1-Butyl-piperidin-4-yloxy)-N-(4-{4-[3-(1-ethyl-propyl)-ureido]-5-fluoro-2-methoxy-phenoxy}-phenyl)-3-methyl-benzamide]: the “Accumulated inhibition of food intake after ip administering of 30 mg/kg, 0-1 h” value in experiment [1] (0-1 h) is recorded as 42%*. Moreover, the “Accumulated inhibition of food intake after ip administering of 30 mg/kg, 0-2 h” value in experiment [1] (0-2 h) turned out to be 21%. In experiment [1] (0-3 h), the “Accumulated inhibition of food intake after ip administering of 30 mg/kg, 0-3 h” value turned out to be 33%**. In addition, the “Accumulated inhibition of food intake after ip administering of 30 mg/kg, 0-4 h” value in experiment [1] (0-4 h) is given as 27%*.

Broadly, the IC50 is the concentration needed to halve the response being measured. Molecule `CCC(CC)NC(=O)Nc1ccc(Oc2cnc(NC(=O)c3ccc(OC4CCN(C(C)C)CC4)cc3)s2)c(OC)c1` [Example 2, N-(5-{4-[3-(1-Ethyl-propyl)-ureido]-2-methoxy-phenoxy}-thiazol-2-yl)-4-(1-isopropyl-piperidin-4-yloxy)-benzamide] came in with an IC50 in experiment [2] of 15 nM. Moreover, the Kb in experiment [3] was 10 nM.

Turning to `CCOc1cc(NC(=O)NC(CC)CC)ccc1Oc1ccc(NC(=O)c2ccc(O[C@H]3C[C@H]4CC[C@@H](C3)N4C)cc2)cc1` [Example 40, N-(4-{2-Ethoxy-4-[3-(1-ethyl-propyl)-ureido]-phenoxy}-phenyl)-4-(8-methyl-8-aza-bicyclo[3.2.1]oct-(3-endo)-yloxy)-benzamide], the IC50 in experiment [2] was found to be 1.7 nM. In addition, in experiment [3], the Kb is 2.24 nM.
